Reference: ChEMBL document CHEMBL1201862, “PubChem BioAssay data set” (2004)
Active and inactive are the calls of the source.

Target: Fatty acid synthase (Homo sapiens, UniProt P49327)
Assay: inhibition of human FAS-TE enzyme activity – biochemical, kinetic fluorescence intensity, dose response (AID 624326);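 note: rate of fluorescence rise from hydrolysis of a fluorogenic O-methyl fluorescein ester substrate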
Format: functional

| IC50 | Structure (SMILES) |
| --- | --- |
| 12.4 µM (active) | COCc1cc(C)nc(SCC[N+](C)(C)CC(=O)Nc2ccccc2)c1C#N |

Target: T1, Trace amine-associated receptor 1 (Homo sapiens, UniProt Q96RJ0)
T1 sequence (Q96RJ0 whole entry): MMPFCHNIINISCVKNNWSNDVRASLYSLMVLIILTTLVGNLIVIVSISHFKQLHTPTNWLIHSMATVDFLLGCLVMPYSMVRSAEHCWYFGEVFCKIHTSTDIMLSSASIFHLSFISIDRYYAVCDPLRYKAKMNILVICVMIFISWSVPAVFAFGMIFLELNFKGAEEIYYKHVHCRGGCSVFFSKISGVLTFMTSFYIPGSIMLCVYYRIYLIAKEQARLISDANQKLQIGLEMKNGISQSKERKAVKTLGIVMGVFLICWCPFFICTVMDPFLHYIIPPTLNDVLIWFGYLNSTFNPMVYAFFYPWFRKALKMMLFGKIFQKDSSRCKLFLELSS
Assay: Fluorescence-based cell-based high throughput dose response assay to identify agonists of the human trace amine associated receptor 1 (TAAR1).
Format: functional

| Structure (SMILES) | EC50 |
| --- | --- |
| O=C(c1nc(C(F)(F)F)[nH]c1-c1ccccc1)N1CCc2ccccc2C1 | 2.77 µM (active) |
| COc1ccc(NS(=O)(=O)c2ccc(NC(=S)NC(=O)C(C)C)cc2)cc1 | 1.99 µM (active) |
| Cc1cc(C)c2cc(C#N)c(N3CCNCC3)nc2c1 | 1.55 µM (active) |
| CC(C)[C@H](NC(=O)c1ccc(Cl)c(Cl)c1)C(=O)N1CCC[C@H]1C(=O)NCCc1ccccc1Cl | 1.45 µM (active) |

Target: T1, Trace amine-associated receptor 1
Assay: Counterscreen for agonists of the human trace amine associated receptor 1 (hTAAR1): Fluorescence-based cell-based high throughput dose response assay to identify hTAAR1 agonist that also desensitize TAAR1 receptor response.
Format: functional

| Structure (SMILES) | IC50 |
| --- | --- |
| O=C(c1nc(C(F)(F)F)[nH]c1-c1ccccc1)N1CCc2ccccc2C1 | 9.85 µM (active) |
| COc1ccc(NS(=O)(=O)c2ccc(NC(=S)NC(=O)C(C)C)cc2)cc1 | 6.23 µM (active) |
| Cc1cc(C)c2cc(C#N)c(N3CCNCC3)nc2c1 | 4.28 µM (active) |
| CC(C)[C@H](NC(=O)c1ccc(Cl)c(Cl)c1)C(=O)N1CCC[C@H]1C(=O)NCCc1ccccc1Cl | 1.53 µM (active) |

Target: Voltage-dependent T-type calcium channel subunit alpha-1H (Homo sapiens, UniProt O95180);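 note: channel activity triggered by adding a high calcium stimulation buffer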
Sequence (O95180 whole entry): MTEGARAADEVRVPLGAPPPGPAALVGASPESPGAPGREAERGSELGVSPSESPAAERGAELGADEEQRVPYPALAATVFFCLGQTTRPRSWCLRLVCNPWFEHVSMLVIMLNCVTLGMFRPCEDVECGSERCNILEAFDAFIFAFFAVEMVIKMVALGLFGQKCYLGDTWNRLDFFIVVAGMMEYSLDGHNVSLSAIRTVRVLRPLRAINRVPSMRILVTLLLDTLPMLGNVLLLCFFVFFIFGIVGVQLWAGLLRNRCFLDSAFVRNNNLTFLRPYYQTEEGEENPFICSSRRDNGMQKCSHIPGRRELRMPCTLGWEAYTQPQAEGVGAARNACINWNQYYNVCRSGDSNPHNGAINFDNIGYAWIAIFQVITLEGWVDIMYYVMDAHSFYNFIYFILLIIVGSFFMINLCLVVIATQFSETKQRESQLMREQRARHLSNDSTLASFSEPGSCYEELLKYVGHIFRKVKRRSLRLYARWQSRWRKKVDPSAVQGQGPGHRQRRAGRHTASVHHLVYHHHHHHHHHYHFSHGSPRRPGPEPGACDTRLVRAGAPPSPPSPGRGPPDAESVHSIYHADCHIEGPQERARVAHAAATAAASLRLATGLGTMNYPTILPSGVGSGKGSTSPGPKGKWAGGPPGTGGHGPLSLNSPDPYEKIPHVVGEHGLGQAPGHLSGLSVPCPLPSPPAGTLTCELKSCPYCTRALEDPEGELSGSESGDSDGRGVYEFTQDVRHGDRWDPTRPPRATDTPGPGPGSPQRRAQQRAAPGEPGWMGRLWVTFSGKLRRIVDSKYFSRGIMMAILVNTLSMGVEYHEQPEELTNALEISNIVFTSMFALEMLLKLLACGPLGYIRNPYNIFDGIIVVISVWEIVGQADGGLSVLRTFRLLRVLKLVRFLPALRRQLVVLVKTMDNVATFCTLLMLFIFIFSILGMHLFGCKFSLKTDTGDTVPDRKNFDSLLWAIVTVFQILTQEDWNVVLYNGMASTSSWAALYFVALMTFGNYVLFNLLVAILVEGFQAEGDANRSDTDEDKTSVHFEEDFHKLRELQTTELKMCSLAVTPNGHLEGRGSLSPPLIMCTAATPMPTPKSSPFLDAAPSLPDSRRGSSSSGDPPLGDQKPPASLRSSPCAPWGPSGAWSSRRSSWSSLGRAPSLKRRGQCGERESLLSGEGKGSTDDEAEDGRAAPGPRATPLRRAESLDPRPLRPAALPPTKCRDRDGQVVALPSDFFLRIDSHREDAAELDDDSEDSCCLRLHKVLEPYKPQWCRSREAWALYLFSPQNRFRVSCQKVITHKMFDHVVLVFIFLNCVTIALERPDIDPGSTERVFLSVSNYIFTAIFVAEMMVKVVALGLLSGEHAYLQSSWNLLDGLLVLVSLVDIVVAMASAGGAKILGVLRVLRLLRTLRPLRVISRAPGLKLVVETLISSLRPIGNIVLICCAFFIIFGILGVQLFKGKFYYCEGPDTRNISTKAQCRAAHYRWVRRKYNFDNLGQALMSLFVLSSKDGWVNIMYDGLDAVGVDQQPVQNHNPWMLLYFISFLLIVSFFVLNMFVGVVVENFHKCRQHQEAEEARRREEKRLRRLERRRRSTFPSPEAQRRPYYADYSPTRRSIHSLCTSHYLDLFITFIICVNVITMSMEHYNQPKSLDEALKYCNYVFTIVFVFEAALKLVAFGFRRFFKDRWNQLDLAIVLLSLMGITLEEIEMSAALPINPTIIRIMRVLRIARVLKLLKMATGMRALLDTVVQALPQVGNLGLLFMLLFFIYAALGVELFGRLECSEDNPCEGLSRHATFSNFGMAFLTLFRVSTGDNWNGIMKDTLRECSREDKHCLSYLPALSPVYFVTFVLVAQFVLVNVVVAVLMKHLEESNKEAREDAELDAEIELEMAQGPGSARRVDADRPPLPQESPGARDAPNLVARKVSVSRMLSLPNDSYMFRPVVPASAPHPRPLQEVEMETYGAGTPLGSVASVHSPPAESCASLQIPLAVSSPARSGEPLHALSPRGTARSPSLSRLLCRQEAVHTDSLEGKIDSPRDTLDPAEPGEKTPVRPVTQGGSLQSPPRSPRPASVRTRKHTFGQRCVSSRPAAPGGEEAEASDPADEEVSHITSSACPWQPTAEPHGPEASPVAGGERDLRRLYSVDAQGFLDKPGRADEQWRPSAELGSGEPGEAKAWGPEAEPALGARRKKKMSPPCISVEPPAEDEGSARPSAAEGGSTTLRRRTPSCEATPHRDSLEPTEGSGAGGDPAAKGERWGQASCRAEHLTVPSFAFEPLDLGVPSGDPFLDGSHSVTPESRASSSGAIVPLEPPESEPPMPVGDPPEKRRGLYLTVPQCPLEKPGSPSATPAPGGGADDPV
Assay: not given
Format: functional

| EC50 | Structure (SMILES) |
| --- | --- |
| 6.17 µM (active) | O=C(NCCCN1CCN(c2cccc(Cl)c2)CC1)C1(S(=O)(=O)c2ccc(Cl)cc2)CC1 |
| 5.23 µM (active) | Cc1ccc2[nH]cc(CCNC(=O)Nc3ccccc3)c2c1 |
| 5.2 µM (active) | CCOC(=O)c1sc(NC(=O)C(CC)OC(=O)C(CC(C)C)NC(=O)c2ccccc2)nc1C (stereo not drawn) |
| 2.58 µM (active) | Cc1ccc(S(=O)(=O)N(CC(=O)N2CCN(c3ccccc3F)CC2)C2CCCCC2)cc1 |
| 7.61 µM (active) | O=C(CN1CCCCCC1)N1c2ccccc2Sc2ccc(C(F)(F)F)cc21 |

Test system: not listed separately
Assay: NIH-3T3 fibroblast cytotoxicity, dose response, cytotoxicity control, cell-based, fluorescence, Alamar Blue, secondary assay (AID 2327);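 note: NIH-3T3 mouse fibroblasts cultured with fluconazole at 8 µg/mL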
Format: functional

| Structure (SMILES) | EC50 |
| --- | --- |
| COc1ccccc1N1CCN(C(=O)c2cc3cc(Cl)ccc3[nH]2)CC1 | 38.6 µM (active) |

Test system: not listed separately
Assay: cells
Format: functional, cell-based

| Structure (SMILES) | IC50 |
| --- | --- |
| O=C(c1nc(C(F)(F)F)[nH]c1-c1ccccc1)N1CCc2ccccc2C1 | > 29.9 µM (inactive) |
| COc1ccc(NS(=O)(=O)c2ccc(NC(=S)NC(=O)C(C)C)cc2)cc1 | 11.5 µM (inactive) |
| Cc1cc(C)c2cc(C#N)c(N3CCNCC3)nc2c1 | > 30 µM (inactive) |
| CC(C)[C@H](NC(=O)c1ccc(Cl)c(Cl)c1)C(=O)N1CCC[C@H]1C(=O)NCCc1ccccc1Cl | > 29.9 µM (inactive) |

Test system: not listed separately
Assay: fluconazole-exposed Candida albicans growth modulators – fluorescence, retest, confirmation (AID 2467)
Format: functional, cell-based

| Structure (SMILES) | EC50 |
| --- | --- |
| COc1ccccc1N1CCN(C(=O)c2cc3cc(Cl)ccc3[nH]2)CC1 | > 38 µM (not active) |

Target: Beta-galactosidase (Escherichia coli, UniProt Q8VNN2)
Sequence (Q8VNN2 whole entry): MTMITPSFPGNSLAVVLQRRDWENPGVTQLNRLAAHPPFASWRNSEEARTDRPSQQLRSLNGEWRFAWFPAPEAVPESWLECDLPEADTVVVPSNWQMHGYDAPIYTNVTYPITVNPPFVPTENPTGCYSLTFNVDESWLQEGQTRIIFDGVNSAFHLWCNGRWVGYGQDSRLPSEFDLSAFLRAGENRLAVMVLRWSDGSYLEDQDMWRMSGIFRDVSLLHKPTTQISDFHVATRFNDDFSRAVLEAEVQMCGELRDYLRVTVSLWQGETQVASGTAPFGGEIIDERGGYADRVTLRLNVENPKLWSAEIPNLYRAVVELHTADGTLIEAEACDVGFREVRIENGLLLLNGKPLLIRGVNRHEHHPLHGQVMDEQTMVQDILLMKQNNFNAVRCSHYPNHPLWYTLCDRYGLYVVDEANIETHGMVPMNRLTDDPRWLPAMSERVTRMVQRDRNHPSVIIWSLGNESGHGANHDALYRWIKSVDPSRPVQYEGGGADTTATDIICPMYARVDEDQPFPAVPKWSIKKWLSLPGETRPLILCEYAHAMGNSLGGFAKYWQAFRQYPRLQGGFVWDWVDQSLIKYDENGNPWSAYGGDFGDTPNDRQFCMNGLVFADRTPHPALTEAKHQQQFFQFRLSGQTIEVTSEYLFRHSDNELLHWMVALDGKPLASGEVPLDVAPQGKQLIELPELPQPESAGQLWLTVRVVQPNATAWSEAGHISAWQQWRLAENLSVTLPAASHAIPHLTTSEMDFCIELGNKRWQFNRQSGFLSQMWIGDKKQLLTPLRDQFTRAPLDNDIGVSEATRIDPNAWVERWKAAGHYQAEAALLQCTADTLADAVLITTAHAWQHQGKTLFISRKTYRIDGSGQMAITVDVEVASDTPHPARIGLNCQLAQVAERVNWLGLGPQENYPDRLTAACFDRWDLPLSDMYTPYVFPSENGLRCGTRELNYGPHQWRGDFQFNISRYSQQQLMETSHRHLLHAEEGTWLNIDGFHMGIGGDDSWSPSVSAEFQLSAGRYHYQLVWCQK
Assay: Dose response counterscreen for EBI2 assay utilizing the enzyme, b-galactosidase.
Format: functional

| IC50 | Structure (SMILES) |
| --- | --- |
| > 80 µM (inactive) | Cc1cc(C)c(S(=O)(=O)N2CCN(C(=O)c3cc4ccccc4o3)CC2)c(C)c1 |
| > 80 µM (inactive) | COc1ccc(N(CC(=O)NCCSc2ccccc2)S(=O)(=O)c2ccccc2)cc1 |
| > 80 µM (inactive) | O=C(c1cc(=O)c2cc(Cl)ccc2o1)N1CCN(Cc2ccccc2)CC1 |

| Structure (SMILES) | IC50 |
| --- | --- |
| COc1ccccc1N1CCN(C(=O)c2cc3cc(Cl)ccc3[nH]2)CC1 | > 80 µM (inactive) |

Test system: not listed separately
Assay: cells
Format: functional, cell-based
Remark: another data set of the same source

| Structure (SMILES) | EC50 |
| --- | --- |
| O=C(c1nc(C(F)(F)F)[nH]c1-c1ccccc1)N1CCc2ccccc2C1 | > 29.9 µM (inactive) |
| COc1ccc(NS(=O)(=O)c2ccc(NC(=S)NC(=O)C(C)C)cc2)cc1 | 19 µM (inactive) |
| Cc1cc(C)c2cc(C#N)c(N3CCNCC3)nc2c1 | > 30 µM (inactive) |
| CC(C)[C@H](NC(=O)c1ccc(Cl)c(Cl)c1)C(=O)N1CCC[C@H]1C(=O)NCCc1ccccc1Cl | > 29.9 µM (inactive) |

Test system: Escherichia coli
Assay: microbe, parasite or virus in culture

| Structure (SMILES) | AC50 |
| --- | --- |
| CCOc1ccc(NC(=O)c2ccc(NC(=O)c3cn4c5c(c(N6CCN(C)CC6)c(F)cc5c3=O)OCC4C)cc2)cc1 (stereo not drawn) | 0.645 µM (active) |
| Cc1cc(C)n(CCCNC(=O)COc2ccc([N+](=O)[O-])cc2)n1 | 89.1 µM (active) |
| CCCNC(=O)c1cn(CC)c2cc(N3CCN(C)CC3)c(F)cc2c1=O | 2.04 µM (active) |
| O=C(Nc1nc2c(s1)CCCC2)c1cccc(S(=O)(=O)N2CCCc3ccccc32)c1 | 134 µM (active) |
| CCN1CCN(C(=O)C(NS(=O)(=O)c2ccc3nc(C)sc3c2)C(C)C)CC1 (stereo not drawn) | > 150 µM (inactive) |
